The subject of assay [1] is cofilin (pS3) in CCK1-R/Panc-1 cells. Briefly: cofilin activation (pS3 cofilin Western blot) in CCK1-R/Panc-1 cells. Type of assay: cell-based, human. As to conditions: CCK-8 0.3 and 100 nM, 5 min. As for the experimental part: CCK1 receptor transfected Panc-1 (CCK1-R/Panc-1) cells ([Berna et al., 2009]) and AR42J cells, were cultured in DMEM supplemented with 10% FBS and 1% penicillin/streptomycin and in RPMI supplemented with 10% FBS and 1% penicillin/streptomycin, respectively; and split 1:10 weekly with trypsin/EDTA, after washing in PBS. Finally, cells were seeded in 6-well plate and serum starved overnight, until they were 80% confluent. Cells were incubated at 37°C in 5% CO2/95% air. AR42J cells were treated with 100 nM dexamethasone for 72°h, which stimulates their differentiation into exocrine cells ([Logsdon, 1986]).
Pancreatic acini preparations were obtained by collagenase digestion as previously described ([Bissonnette et al., 1984]; [Sato et al., 1989]; [Ramos-Alvarez and Jensen, 2018]). […] Isolated acini and CCK1-R/Panc-1 cells (M&M 2.2.1) were also preincubated with two SSH1 inhibitors, D3 (25 μM, 1 h) ([Li et al., 2015]) or SE (50 μM, 3 h for acini; 24 h for CCK1-R/Panc-1 cells) ([Lee et al., 2017]). […] After sonication, lysates were centrifuged at 10,000×g for 15 min at 4°C and protein concentration was measured using the Bio-Rad protein assay reagent. […]
Western blotting and immunoprecipitation were performed as described previously ([Ramos-Alvarez and Jensen, 2018]). […] The intensity of the protein bands was measured using GeneTools software from Syngene, which were assessed in the linear detection range. […]
FIGURE 3 Effect of two SSH1 inhibitors, D3 and SE (A–C), or SSH1 siRNA (D), on the ability of CCK-8 (0.3 and 100 nM) to activate LIMK and cofilin in pancreatic acini (A/B) and activate cofilin in CCK1-R/Panc-1 cells (C/D). […] Western blots were analyzed using anti-pS3 cofilin and anti-pT508 […], and the knockdown effect of SSH1 was confirmed by Western blots using SSH1 (C-term) antibody. Bands were visualized using chemiluminescence and quantified by densitometry. […] Results are expressed as % of basal stimulation of the control group. *, p < 0.05 compared to the control group; ∞, p < 0.05 compared to stimulants without inhibitors. […]
(In western blotting, separated proteins are transferred to a membrane and probed.)

Assay [2] relates to cofilin-1 in epithelial cells. Particulars: micromolar concentrations, ref Zhang et al., 2018; cited from earlier work. The procedure: (Figures 11, 12) CCK-8 stimulates pancreatic growth in addition to being a physiological regulator of pancreatic enzyme secretion ([Jensen, 1994]; [Dufresne et al., 2006]) The activation of p44/42 MAPK by CCK-8 is an important signaling step in mediating its growth effects ([Dufresne et al., 2006]). Therefore, to study the possible role of cofilin in the activation of p44/42 MAPK in pancreatic acini, we examined the effect on cofilin activation of preincubation with two cofilin inhibitors (Cytochalasin D, Paclitaxel). (Figure 11) ([Shoji et al., 2012]; [Zhang et al., 2018]). The concentrations ...

The subject of assay [3] is p44/42 MAPK in pancreatic acini. Briefly: p44/42 MAPK activation (pT202/Y204 Western blot) in pancreatic acini. It counts as cell-based. As to conditions: Rattus norvegicus, Cytochalasin D 10 µM or Paclitaxel 5 µM, 3 h, range. The procedure:
Pancreatic acini preparations were obtained by collagenase digestion as previously described ([Bissonnette et al., 1984]; [Sato et al., 1989]; [Ramos-Alvarez and Jensen, 2018]). […] Isolated acini and CCK1-R/Panc-1 cells (M&M 2.2.1) were also preincubated with two SSH1 inhibitors, D3 (25 μM, 1 h) ([Li et al., 2015]) or SE (50 μM, 3 h for acini; 24 h for CCK1-R/Panc-1 cells) ([Lee et al., 2017]). After preincubation, 1 mL aliquots of dispersed acini were incubated at 37°C for 3–15 min with CCK-8 (0.3 nM or 100 nM), for 5–15 min with TPA (1 µM) or without stimulants, used as control. Cells were lysed in lysis buffer (50 mM Tris/HCl pH 7.5, 150 mM NaCl, 1% Triton X-100, 1% deoxycholate, 0.1% sodium azide, 1 mM EGTA, 0.4 mM EDTA, 0.2 mM sodium orthovanadate, 1 mM PMSF, and one protease inhibitor tablet per 10 mL). After sonication, lysates were centrifuged at 10,000×g for 15 min at 4°C and protein concentration was measured using the Bio-Rad protein assay reagent. Finally, cells were processed as below for Western blotting.
Western blotting and immunoprecipitation were performed as described previously ([Ramos-Alvarez and Jensen, 2018]). Whole cell lysates were subjected to SDS-PAGE using 4%–20% Tris–Glycine gels. […] The intensity of the protein bands was measured using GeneTools software from Syngene, which were assessed in the linear detection range. […]

Read-outs that look alike come from different tables or passages of the source.

As for “COOH-terminal octapeptide of cholecystokinin [CCK-8]”, in assay [1], the “effect on cofilin phosphorylation in CCK1-R/Panc-1 cells” value is given as “caused rapidly dephosphorylation of cofilin”.
For the molecule `CC(=O)O[C@H]1C(=O)[C@@]2(C)[C@H]([C@H](OC(=O)c3ccccc3)[C@]3(O)C[C@H](OC(=O)[C@H](O)[C@@H](NC(=O)c4ccccc4)c4ccccc4)C(C)=C1C3(C)C)[C@]1(OC(C)=O)CO[C@@H]1C[C@@H]2O` [Paclitaxel], the “effect on cofilin-1 expression levels” value in assay [2] is given as “significantly suppressed cofilin-1 expression levels”. In addition, the inhibition at 5 µM in assay [3] (CCK-8 0.3 and 100 nM 3 min, read-out: inhibition of CCK-8-mediated p42/44 phosphorylation) is 31 to 41%; in assay [3] (TPA 1 µM 5 min, read-out: inhibition of TPA-mediated p42/44 phosphorylation), 27 to 30%.

These data come from PMC10149936, “Cofilin activation in pancreatic acinar cells plays a pivotal convergent role for mediating CCK-stimulated enzyme secretion and growth” (Frontiers in Physiology, 2023).
